Where a name gives a salt, the structure may show the parent alone.
Experiment: Hygroscopicity / humidity stability of salts by Dynamic Vapour Sorption (DVS)
Type: physicochemical
Settings: solid salt

Structure (SMILES): CC(C)N1CCN(C(=O)c2ccc(CN3CCOCC3)cc2)CC1.O=C(O)/C=C\C(=O)O [(4-Isopropyl-piperazin-1-yl)-(4-morpholin-4-ylmethyl-phenyl)-methanone Bis-maleate Salt]
- hygroscopicity by DVS: hygroscopic

Structure (SMILES): CC(C)N1CCN(C(=O)c2ccc(CN3CCOCC3)cc2)CC1.O=C(O)/C=C/C(=O)O [(4-Isopropyl-piperazin-1-yl)-(4-morpholin-4-ylmethyl-phenyl)-methanone Mono-fumarate Salt]
- relative humidity up to which the salt is stable, by DVS: up to 70%

Structure (SMILES): CC(C)N1CCN(C(=O)c2ccc(CN3CCOCC3)cc2)CC1 [(4-Isopropyl-piperazin-1-yl)-(4-morpholin-4-ylmethyl-phenyl)-methanone Mono-succinate Salt]
- hygroscopicity by DVS (Mono-succinate Salt): non-hygroscopic

Structure (SMILES): CC(C)N1CCN(C(=O)c2ccc(CN3CCOCC3)cc2)CC1 [(4-Isopropyl-piperazin-1-yl)-(4-morpholin-4-ylmethyl-phenyl)-methanone, dihydrobromide semi-hydrate salt]
- relative humidity above which the salt is hygroscopic, by DVS: above 10 % RH

Structure (SMILES): CC(C)N1CCN(C(=O)c2ccc(CN3CCOCC3)cc2)CC1 [(4-Isopropyl-piperazin-1-yl)-(4-morpholin-4-ylmethyl-phenyl)-methanone, dihydrochloride monohydrate salt]
- hygroscopicity by DVS: hygroscopic

Source: patent publication US7728129B2, “Processes for the preparation of piperazinyl and diazapanyl benzamide derivatives” (Janssen Pharmaceutica NV, priority 2005, dated 2010)
